Experimental data as given in article PMC6764124 (Journal of Neuroinflammation, 2019).
Read-outs that look alike come from different tables or passages of the source.

Assays:
[1] = tested on: non-dividing p24+ primary CD4+ T cells; experiment: Frequency of non-dividing p24+ latent primary CD4+ T cells in vitro; assay type: cell-based, human
[2] = tested on: latent HIV-1 in primary human Mϕ; experiment: PMA-induced reactivation of HIV-1 from latent primary human macrophages (p24 ELISA); assay type: cell-based
Protocol: Primary human Mϕ were prepared as described above and infected with an MOI of 0.5 with HIV-1BaL for 4 h prior to removal of virus and culture in virus-free medium. Supernatants were collected every 5 days, and extracellular p24 production was monitored (p24 ELISA, ABL, Inc.). Fresh culture medium was added to cultures every 5 days as supernatants were collected for p24 analysis. […] After 24 h post-reactivation, cellular supernatants were collected, and extracellular reactivated p24 was quantified (p24 ELISA). Percent inhibition of reactivation was calculated versus no drug controls, and EC50/90 were calculated as previously described.

[3] = tested on: HLA-DR and CD163 in primary human Mϕ; experiment: HIV-induced upregulation of activation markers HLA-DR and CD163 in primary human macrophages; assay type: cell-based
From the text: Mϕ and monocytes were isolated as previously described. […] Cells were maintained for 6 days before viral quantification (p24-ELISA). For in vitro activation marker studies, CD14^+ monocytes or fully differentiated (CD14^−/CD11b^+) Mϕ were used. […] The method used to differentiate Mϕ (CD14^−/CD11b^+) has been validated by our group to ensure that these cells are no longer expressing monocyte marker CD14 and are mature Mϕ (CD11b expression). […] Miltenyi Biotec, San Diego, CA). Mϕ and monocytes were treated with various concentrations of drug for 6 days and stained with Near-IR live/dead dye and quantified by FACS. Antiviral potency was calculated as previously described. […] Cells were harvested and stained for CD14^+ (FITC)/CD16^+ (APC) to quantify HIV-induced activation or impact of drugs on block of these markers.

[4] = tested on: HIV replication in primary PBM cells; experiment: Antiviral activity in activated peripheral blood mononuclear (PBM) cells; assay type: cell-based, HIV-1; details: for EC90: read-out: EC90 inhibition of HIV replication in PBM cells
[5] = tested on: HIV-1baL; experiment: Antiviral activity in primary human macrophages (p24 ELISA); assay type: cell-based; details: for EC90: read-out: EC90 inhibition of HIV replication in macrophages
From the text: Mϕ and monocytes were isolated as previously described. […] Cells were maintained for 6 days before viral quantification (p24-ELISA). For in vitro activation marker studies, CD14^+ monocytes or fully differentiated (CD14^−/CD11b^+) Mϕ were used. Monocytes were used as a model to mimic HIV-induced activation that transpires in the periphery, wherein presence or internalization of HIV-1 in monocytes confers activation (CD14^+/CD16^+) and subsequent trafficking of “Trojan horse” monocytes across and within the BBB [11, 12]. The method used to differentiate Mϕ (CD14^−/CD11b^+) has been validated by our group to ensure that these cells are no longer expressing monocyte marker CD14 and are mature Mϕ (CD11b expression). Mϕ or monocytes were treated with various concentrations of drug prior to infection (HIV-1baL) and maintained for 3 days before quantification of HLA-DR, CD163 (Mϕ), or CD14/CD16 (monocytes; Miltenyi Biotec, San Diego, CA). Mϕ and monocytes were treated with various concentrations of drug for 6 days and stained with Near-IR live/dead dye and quantified by FACS. Antiviral potency was calculated as previously described.

[6] = tested on: J-lat T cells; experiment: TNF-α-induced reactivation of latent HIV-1 in J-lat T cells; assay type: cell-based, human
[7] = tested on: latent HIV in T cells; set-up: method as in PMID 29267399; details: cited from earlier work
[8] = tested on: HAND mice (IC injection of HIV-infected human MDM); experiment: Brain HAND markers by flow cytometry in SCID mouse HAND model; assay type: in vivo; details: day 14, versus untreated HAND mice
Protocol: Four-week-old B6.CB17-Prkdc^scid/SzJ (SCID) male mice were injected IC with 30 μL of HIV-infected MDMs suspended in 0.9% saline, directly into the frontal lobe of the right hemisphere. The injection was done free-handed (without a stereotactic device). The injection is performed with a syringe that allows a very slow rate of infusion. We have verified the injection site with a histological staining in our previously published works, which is in the basal ganglia as described in Koneru et al.. Injections were performed on day 0 (D0). Treatments (baricitinib or saline) were given subcutaneously (SC).
Fourteen days after IC MDM inoculation, mice were sacrificed and brain samples were harvested and placed in a tissue preservative solution (Miltenyi, Bergisch Gladbach, Germany). Samples were then dissociated using a commercial kit and a gentleMacs dissociator (Miltenyi) into single cell suspensions. Cells were then washed in 2% BSA/PBS buffer and incubated with the following: (1) anti-murine CD45-Vioblue (1:10 dilution) and anti-murine MHCII primary antibody (1:500) followed by APC conjugated secondary antibody (1:500 dilution), or isotype-only controls; (2) GFAP-FITC (1:750 dilution 1′ antibody and 1:1000 2′ 488 (FITC) antibody (Abcam, Cambridge, UK); or (3) human (non-murine cross-reactive) CD163-APC (Miltenyi Biotec) for 30 min (Sigma Aldrich, St. Louis, MO). Cells were washed twice in 2% BSA/PBS and fixed with 2% paraformaldehyde for 15 min. Cells were washed twice in 2% BSA/PBS and analyzed for double positive cells by flow cytometry (Macs Quant analyzer and MacsQuantify software, Miltenyi Biotec).
Total events were collected using forward scatter (FSC) and side scatter […] followed by doublet discrimination (FSC-area versus FSC-height) using a MacsQuant flow cytometer (Miltenyi). No primary FSC/SSC gate was established, to allow all events to be collected within the heterogeneous size and granularity of the brain cells. GFAP^+ events were collected with gates and voltages established using 2′ antibody only. GFAP^+ low granularity gate was established with events up to one-log shift from negative population, and GFAP^+ high granularity (activated astrocytes) was established with events greater than two-log shift from negative population. MHCII and CD45 (mouse mononuclear phagocytes) expression were quantified based on quadrant gating for MHCII^+/CD45^−, CD45^+MHCII^−, MHCII^+/CD45^+, or MHCII^−/CD45^−. CD163^+ events (human Mϕ) were collected with gates established from isotype-only controls. Percentages and total events were collected.

[9] = set-up: method as in Olumiant.com; details: at concentrations more than 2 logs above concentrations in the murine model; ref Olumiant.com; cited from earlier work
[10] = Pharmacokinetics of baricitinib in mouse plasma and brain after single SC dose (LC-MS/MS); assay type: in vivo, SCID mice; details: for Cmax: SCID mice
Protocol: One, 4, 8, and 24 h after drug inoculation, mice were sacrificed and whole blood was collected immediately followed by cardiac perfusion with PBS prior to the extraction of brain tissues. After brain extraction, posterior fossa (the cerebellum and brainstem) was taken, snap frozen, and stored at − 70 °C. Posterior fossa from each mouse was then weighed and homogenized in a mixed water and methanol (2:1) solution. The homogenates were then centrifuged, and the pellet discarded. The supernatant was dried by evaporation using nitrogen gas, resuspended in 1 mL water, and put through Isolute-XL C18 columns (Biotage, Uppsala, Sweden). Drug was then eluted with acetonitrile and subsequently dried. […] Chromatographic separation was performed by Ultimate 3000 LC system (Thermo Scientific, MA, USA), on a Kinetex XB-C18 column (50 × 2.1 mm) with a 2.6-μm particle size (Phenomenex, CA, USA). The mobile phase A consisted of 0.1% formic acid in water, and the mobile phase B consisted of methanol. Isocratic elution was used for the separation with mobile phase A:B at 25:75 (v/v). The column was maintained at ambient temperature. The flow rate was maintained at 250 μL/min, and a 20-μL injection was used. An API5000 triple quadrupole mass spectrometer (ABsciex, MA, USA) was used for detection, with electrospray ionization in positive ion mode. The mass spectrum parameters for the analytes were set as follows: ion spray voltage, 5500 V; curtain gas, 25 psi; ion source gas 1, 40 psi; ion source gas 2, 40 psi; source temperature, 500 °C; and collision gas, 5 psi. […] Analyst software version 1.5.2 was used to operate the mass spectrometer and to perform data analysis. […] The calibration curves had r^2 value greater than 0.99.

[11] = tested on: HIV-infected individuals; set-up: method as in earlier work; details: cited from earlier work
[12] = tested on: HIVE mouse model; set-up: method as in PMID 26851503; details: cited from earlier work

## Nc1ccn([C@@H]2CS[C@H](CO)O2)c(=O)n1 [3TC]
[1]
  Effect on frequency of non-dividing latent CD4 T cells (dose response, Figure S1 E): did not have any effect
[2]; macrophages
  Effect on PMA induced reactivation (dose response, Figure S1 D): did not have any effect
[3]
  Effect on HIV-induced activation markers HLA-DR/CD163 double positive macrophages (dose response, Figure S1 F): did not have any effect
[4]; primary activated PBM cells, read-out: EC50 inhibition of HIV replication in PBM cells
  EC50: 10 nM
[4]; primary activated PBM cells
  EC90: 900 nM
[5]; primary human Mϕ, read-out: EC50 inhibition of HIV replication in macrophages
  EC50: 100 nM
[5]; primary human Mϕ
  EC90: 1200 nM
[6]
  Effect on TNF-a induced reactivation (dose response, Figure S1 C): did not have any effect

## C[C@@H]1CCN(C(=O)CC#N)C[C@@H]1N(C)c1ncnc2[nH]ccc12 [tofacitinib]
[7]
  Reactivation of latent HIV from T cells: block the reactivation

## CCS(=O)(=O)N1CC(CC#N)(n2cc(-c3ncnc4[nH]ccc34)cn2)C1 [Baricitinib]
[8]; 10 mg/kg qd SC
  Activated astrocytes (GFAP+; astrogliosis) in brain: reduced
  Percentage of activated mouse mononuclear phagocytes (MHCII/CD45 double positive cells) in brain: significantly reduced
[8]; 50 mg/kg qd SC (high dose)
  Activated p24+ human Mϕ in brain: significantly reduced
[8]; 50 mg/kg qd SC
  Activated astrocytes (GFAP+; astrogliosis) in brain: reduced
  Percentage of activated mouse mononuclear phagocytes (MHCII/CD45 double positive cells) in brain: significantly reduced
[9]
  Toxicity: not toxic
[1]; Homo sapiens, non-dividing p24+ primary CD4+ T cells, read-out: EC90 reduction of non dividing latent CD4 T cells
  EC90: 700 ± 80 nM
[2]; Macrophage, latent primary human macrophages, 50 ng/mL PMA, 24 h, read-out: EC90 inhibition of PMA induced reactivation
  EC90: 700 ± 100 nM
[3]; Macrophage, primary human macrophages, read-out: EC90 inhibition of HIV-induced HLA-DR and CD163
  EC90: 1200 nM
[4]; Human immunodeficiency virus 1, PBMC
  EC90: 400 ± 70 nM
[10]; 1, 4, 8, 24 h after 10 or 50 mg/kg SC, limit of detection 5.5 ng/mL
  Detection in plasma and brain samples: detected in all plasma and brain samples except for 24 h plasma samples at 10 mg/kg
[10]; 10 and 50 mg/kg SC, mouse
  Blood-brain barrier penetration: can penetrate mouse BBB
[10]; mouse, brain (posterior fossa: cerebellum and brainstem), 10 mg/kg single SC, read-out: Cmax in the brain
  Cmax: ~40 ng/g
[10]; mouse, brain (posterior fossa: cerebellum and brainstem), 50 mg/kg single SC, read-out: Cmax in the brain
  Cmax: ~75 ng/g
[10]; mouse, plasma, 10 mg/kg single SC, read-out: Cmax in plasma
  Cmax: ~200 ng/mL
[10]; mouse, plasma, 50 mg/kg single SC, read-out: Cmax in plasma
  Cmax: ~1400 ng/mL
[5]; Human immunodeficiency virus 1, Macrophage
  EC90: 2100 ± 300 nM
[6]; Homo sapiens, T-cell, read-out: EC90 inhibition of TNF-α induced reactivation
  EC90: 1100 ± 300 nM

## N#CC[C@H](C1CCCC1)n1cc(-c2ncnc3[nH]ccc23)cn1 [ruxolitinib]
[11]; HIV-infected, cART-suppressed individuals, versus control cART group
  Safety and tolerability: safe and well-tolerated
[11]; ruxolitinib arm versus cART group
  sCD14 (clinical marker for monocyte activation): significant reduction
[7]
  Reactivation of latent HIV from T cells: block the reactivation
[12]
  Effect on HIVE in mouse model: ameliorates HIVE
